Experimental data as given in patent publication US20130165489A1, “Small Molecule Modulators of HIV-1 Capsid Stability and Methods Thereof” (The Trustees of the University of Pennsylvania, priority 2010, published 2013).
“Also recorded” adds a separate entry of the source.

How the values were obtained:
[1] = tested on: HIV-1 BCF02 (group O clinical isolate); test: Anti-HIV efficacy in human PBMCs, isolate BCF02; assay type: cell-based
Experimental: (§1) HIV human peripheral blood mononuclear cell (PBMC) assays were performed as described previously (Lanier et al., 2010, Antimicrob. Agents Chemother. 54:2901-09; Ptak et al., 2008, Antimicrob. Agents Chemother. 52:1302-17). Briefly, fresh PBMCs, seronegative for HIV and hepatitis B virus (HBV), were isolated from blood samples of the screened donors (Biological Specialty Corporation, Colmar, Pa.) by using lymphocyte separation medium (LSM; density, 1.078±0.002 g/ml; Cellgro; Mediatech, Inc.) by following the manufacturer's instructions. Cells were stimulated by incubation in 4 μg/mL phytohemagglutinin (PHA; Sigma) for 48 to 72 h. Mitogenic stimulation was maintained by the addition of 20 U/mL recombinant human interleukin-2 (rhIL-2; R&D Systems, Inc.) to the culture medium. PHA-stimulated PBMCs from at least two donors were pooled, diluted in fresh medium, and added to 96-well plates at 5×10^4 cells/well. Cells were infected (final multiplicity of infection [MOI] of ≅0.1) in the presence of 9 different concentrations of test compounds (triplicate wells/concentration) and incubated for 7 days. […] Following removal of supernatant samples, compound cytotoxicity was measured by the addition of 3-(4,5-dimethylthiazol-2-yl)-5-(3-carboxymethoxyphenyl)-2-(4-sulfophenyl)-2H-tetrazolium (MTS; CellTiter 96 reagent; Promega) by following the manufacturer's instructions. […]

[2] = tested on: HIV-1 92BR030 (subtype B clinical isolate); test: Anti-HIV efficacy in human PBMCs, isolate 92BR030; assay type: cell-based
Experimental: HIV human peripheral blood mononuclear cell (PBMC) assays were performed as described previously (Lanier et al., 2010, Antimicrob. Agents Chemother. 54:2901-09; Ptak et al., 2008, Antimicrob. Agents Chemother. 52:1302-17). Briefly, fresh PBMCs, seronegative for HIV and hepatitis B virus (HBV), were isolated from blood samples of the screened donors (Biological Specialty Corporation, Colmar, Pa.) by using lymphocyte separation medium (LSM; density, 1.078±0.002 g/ml; Cellgro; Mediatech, Inc.) by following the manufacturer's instructions. Cells were stimulated by incubation in 4 μg/mL phytohemagglutinin (PHA; Sigma) for 48 to 72 h. Mitogenic stimulation was maintained by the addition of 20 U/mL recombinant human interleukin-2 (rhIL-2; R&D Systems, Inc.) to the culture medium. PHA-stimulated PBMCs from at least two donors were pooled, diluted in fresh medium, and added to 96-well plates at 5×10^4 cells/well. Cells were infected (final multiplicity of infection [MOI] of ≅0.1) in the presence of 9 different concentrations of test compounds (triplicate wells/concentration) and incubated for 7 days. To determine the level of virus inhibition, cell-free supernatant samples were collected for analysis of reverse transcriptase activity (Buckheit Jr., et al., 1991, AIDS Res. Hum. Retroviruses 7:295-302). Following removal of supernatant samples, compound cytotoxicity was measured by the addition of 3-(4,5-dimethylthiazol-2-yl)-5-(3-carboxymethoxyphenyl)-2-(4-sulfophenyl)-2H-tetrazolium (MTS; CellTiter 96 reagent; Promega) by following the manufacturer's instructions.
79:6089-6101; Jagodzinski et al., 2000, J. Clin. Microbiol. 38:1247-49; Michael et al., 1999, J. Clin. Microbiol. 37:2557-63 and Vahey et al., 1999, J. Clin. Microbiol. 37:2533-37); HIV-1 Group M isolate 931N101 (Subtype C, CCR5-tropic) from Dr. Robert Bollinger and the UNAIDS Network for HIV Isolation and Characterization (Gao et al., 1994, AIDS Res. Hum. Retroviruses 10:1359-68); HIV-1 Group M isolate CMUO8 (Subtype E, CXCR4-tropic) from Dr. Kenrad Nelson and the UNAIDS Network for HIV Isolation and Characterization (Gao et al., 1994, AIDS Res. Hum. Retroviruses 10:1359-68); HIV-1 Group M isolate G3 (Subtype G, CCR5-tropic) from Alash'le Abimiku (Abimiku et al., 1994, Aids Res. Hum. Retrovir. 10:1581-83); HIV-1 Group 0 isolate BCF02 (CCR5-tropic) from Sentob Saragosti, Françoise Brun-Vézinet, and François Simon (Loussertajaka et al., 1995, J. Virol. 69:5640-49); and SIV isolate Mac251 from Dr. Ronald Desrosiers (Daniel et al., 1985, Science 228:1201-04).

Vaccinia = test: microbe, parasite or virus in culture; assay type: cell-based
[3] = tested on: HIV-1 93IN101 (subtype C clinical isolate); test: Anti-HIV efficacy in human PBMCs, isolate 93IN101; assay type: cell-based
Experimental: as §1

[4] = tested on: recombinant luciferase-expressing HIV-1 bearing the envelope glycoprotein of the HIV-1YU-2 strain; test: Single-round infection assay, HIV-1 with YU-2 envelope on Cf2Th-CCR5 cells
mutant HIV-1 CA proteins = test: Binding site analysis via SPR, mutant CA proteins; conditions: alanine mutants of residues 137 and R173, 27.5 μM
Experimental: Wild-type and mutant HIV-1 CA proteins were attached to the surface by standard amine chemistry as described above. Compound CMPD-E was injected over these surfaces at a concentration of 27.5 μM at a flow rate of 50 μL min^−1, for a 2-min association phase, followed by a 5-min dissociation phase, and the response at equilibrium recorded. For comparison, and to take into account minor differences in the ligand density of the mutant surfaces, responses were normalized to the theoretical Rmax, assuming a 2:1 interaction.
Data analysis was performed using BIAEvaluation 4.0 software. The responses of a buffer injection and responses from the reference flow cell were subtracted to account for nonspecific binding. In order to obtain the equilibrium dissociation constants (KD), experimental data were fitted globally to the heterogeneous ligand model. The average parameters generated from a minimum of 4 data sets were used to define the equilibrium dissociation constants (KD1 and KD2). In the mutant CA protein studies, the average maximum response was generated from a minimum of 6 data sets and was used to define the average maximum response for compound CMPD-E binding to wild-type and mutant HIV-1 CA proteins.

HIV-1 CA = HIV-1 CA (Human immunodeficiency virus type 1 group M subtype B, UniProt P12493); test: In vitro CA assembly assay (turbidity); assay type: biochemical; conditions: CA 30 μM; compound 147 μM; turbidity at 350 nm
Experimental: The effect of compound CMPD-E on the assembly of HIV-1 CA was measured by monitoring turbidity at 350 nm using a modification of the method of Tian et al. (Tian et al., 2009, Bioorg. Med. Chem. Lett. 19:2162-67). Briefly, 1.0 μL of concentrated CMPD-E in 100% DMSO was added to a 74-μL aqueous solution (2 mL of 5 M NaCl mixed with 1 mL of 200 mM NaH2PO4, pH 8.0). To initiate the assembly reaction, 25 μL of purified CA protein (120 μM) was added. An identical reaction mixture was prepared, omitting the compound (i.e., DMSO only). Samples were allowed to equilibrate for 2 min prior to reading. Readings were taken at 350 nm every 10 s for 30 min. CA was used at a final concentration of 30 μM, and CMPD-E at a final concentration of 147 μM.

in vitro = conditions: African green monkey
[5] = tested on: HIV-1 93BR020 (subtype F clinical isolate); test: Anti-HIV efficacy in human PBMCs, isolate 93BR020; assay type: cell-based
Experimental: as §1

[6] = tested on: HIV-1 CMU08 (subtype E clinical isolate); test: Anti-HIV efficacy in human PBMCs, isolate CMU08; assay type: cell-based
Experimental: as §1

RSV = test: CPE assay, RSV; assay type: cell-based, respiratory syncytial virus
[7] = Human immunodeficiency virus 1, PBMC

O=C(O)c1ccc(-c2nc(-c3ccccc3)c(-c3ccccc3)[nH]2)cc1 [CMPD-E, 4-(4,5-diphenyl-1H-imidazol-2-yl)benzoic acid]
IC50 [1, 7]: 71.3 µM
Antiviral index (TC50/IC50) ([1]; PBMC): >1.4
Antiviral index (TC50/IC50) ([2]; 92BR030, PBMC): >1.46
IC50 [2, 7]: 68.7 µM
inhibition of HIV-1 92BR030 replication in PBMCs ([2]; primary PBMCs): could inhibit
IC50 (Vaccinia; Orthopoxvirus vaccinia): > 100 µM
effect on Vaccinia replication (Vaccinia; up to 100 μM): no inhibitory effects
IC50 [3, 7]: 48.4 µM
Antiviral index (TC50/IC50) ([3]; PBMC): >2.07
activity in the single-round infection assay ([4]; Cf2Th-CCR5 cells, YU-2 envelope): retained the activity of the parental molecule; also recorded: retained all of the inhibitory capability of the parental compound
IC50 ([4]; Human immunodeficiency virus 1, Cf2Th-CCR5, read-out: IC50 against HIV-1 (single-round infection)): 22.5 ± 1.1 µM
reduction of binding to mutant CA compared to wild-type CA (mutant HIV-1 CA proteins): > 2 fold
effect on assembly of HIV-1 CA in vitro (HIV-1 CA): prevents the assembly of the capsid; also recorded: prevented assembly of CA in vitro; also recorded: preventing the assembly of the capsid
CC50 (in vitro): > 100 µM
IC50 [5, 7]: 65.6 µM
Antiviral index (TC50/IC50) ([5]; PBMC): >1.53
IC50 [6, 7]: 100 µM
Antiviral index (TC50/IC50) ([6]; PBMC): >1
activity against RSV (RSV; CPE assay, up to 100 μM): no inhibitory effects
IC50 (RSV; human respiratory syncytial virus, RSV, Vero cells): > 100 µM
